Molecular target: T1, human leukocyte elastase (HLE) (Homo sapiens, UniProt P08246)
T1 construct: purchased Calbiochem
T1 sequence (P08246 30-267): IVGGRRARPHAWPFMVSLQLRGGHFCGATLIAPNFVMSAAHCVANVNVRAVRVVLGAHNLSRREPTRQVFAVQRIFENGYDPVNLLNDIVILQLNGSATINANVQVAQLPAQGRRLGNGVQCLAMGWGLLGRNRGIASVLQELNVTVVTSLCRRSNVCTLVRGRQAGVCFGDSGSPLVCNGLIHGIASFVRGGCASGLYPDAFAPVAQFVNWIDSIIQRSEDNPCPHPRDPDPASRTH
Assay: Kinetic parameters of HLE inhibition, fluorogenic substrate N-methoxysuccinyl-alanyl-alanyl-prolyl-valyl-7-amido-4-methylcoumarin
Type: biochemical
Settings: HLE (Calbiochem), 37°C, phosphate buffer pH 7.4, I= 0.15, 1% DMSO and 1% MeCN; for Ki: apparent dissociation constant of HLE-inhibitor complex at steady state; for k₅/Ki: rate of formation of HLE-inhibitor complex
Excerpt: The inhibitory activity on human leukocyte elastase (HLE) of Δ-cephem sulphones of the invention, designated as Compound 4 and Compound 5 in Table 1 above, and of the Δ³-cephem sulphone Merck S.&D. L-659,286, which, to our best knowledge, is the most advanced β-lactam product under study as an HLE-inhibitor (Ann. Rev. Resp. Dis. 1988, 137:204; Journal of Cellular Biochemistry 1989, 39:47), was compared as described below.
The reference compound 7α-methoxy-3-(2-methyl-5-oxo-6-hydroxy-2,5-dihydro-1,2,4-triazin-3-yl)thiomethyl-3-cephem-4-pyrrolidine-carboxamide-1,1-dioxide (Merck's code-name; L-659,286) was synthesized in our laboratories from 7-amino-3-desacetoxy-cephalosporanic acid. Its structural identity and purity (≥95%) was confirmed by spectral and analytical data.
The kinetic parameters of HLE (Calbiochem) inhibition were determined at 37°C in phosphate buffer (pH 7.4, I= 0.15) with 1% DMSO and 1% MeCN as solubilizing vehicles, monitoring fluorometrically (λex= 383 nm; λem = 455 nm) the release of 7-amino-4-methylcoumarin from the fluorogenic substrate N-methoxysuccinyl-alanyl-alanyl-prolyl-valyl-7-amido-4-methylcoumarin. Best fit to the progress curves was obtained by a two-step mechanism (mechanism B in J.F. Morrison, TIBS 1982, 7:102; see also J.F. Morrison and C.T. Walsh, Advances in Enzymology, vol. 61, A. Meister editor, John Wiley & Sons 1988): [drawing 9] Product release versus time was analysed using the following function: [P] = vs t + (vi -vs (1-e)^-kt )/k [formula] wherein [P] = product concentration, vs = steady state rate, vi = initial rate of product release and k = k6 + (k5 /Ki )([I])/(1 + [S]/Km + [I]/Ki); Ki = k4 /k3 [formula] wherein [I] and [S] = inhibitor and substrate concentration, and Km = Michaelis constant for the enzymesubstrate pair (independently determined under the same experimental conditions). At steady state, inhibition is fully determined by the steady-state inhibition constant Ki* (steady state): Ki * = Ki (k6)/(k5 + k6) [formula]

Compound: COC(=O)C1(/C=C\C(=O)OC(C)(C)C)C(C)=CS(=O)(=O)[C@@H]2[C@@H](Cl)C(=O)N21 (stereo partly drawn) [Compound 4, Methyl 7α-chloro-4-[(Z)-2-tert-butoxycarbonylethenyl]-3-methyl-2-cephem-4-carboxylate-1,1-dioxide]
- Ki: 64 nM
- k₅/Ki: k₅/Ki = 7,200 M⁻¹s⁻¹

Compound: COC(=O)C1(C=CC(=O)OC(C)(C)C)C(C)=C(/C=C/C(=O)OC(C)(C)C)S(=O)(=O)[C@@H]2[C@@H](Cl)C(=O)N21 (stereo partly drawn) [Compound 5, Methyl-7α-Chloro-2,4-bis[2-tert-butoxycarbonylethenyl]-3-methyl-2-cephem-4-carboxylate-1,1-dioxide]
- Ki: 5.2 nM

Compound: CO[C@H]1C(=O)N2C(C(=O)N3CCCC3)=C(CSc3nc(=O)c(O)nn3C)CS(=O)(=O)[C@H]12 [Reference compound, 7α-methoxy-3-(2-methyl-5-oxo-6-hydroxy-2,5-dihydro-1,2,4-triazin-3-yl)thiomethyl-3-cephem-4-pyrrolidine-carboxamide-1,1-dioxide, reference compound]
- Ki: 140 nM
- k₅/Ki: k₅/Ki = 8,000 M⁻¹s⁻¹

— patent EP0457381B1, “Delta 2-cephem sulphones” (PHARMACIA S.p.A., priority 1990, dated 1991)
